Source: US7206699B2, “Methods for measuring therapy resistance” (Virco N.V., priority 2000, dated 2007)
Like-named read-outs stand apart in the source and are kept apart here.

System: HIV-1
Settings: for Geometric Mean Phenotype: fold change in IC50 vs wild type; for Average Phenotype (log): log fold change
[1] = RT codon 41 ANY, 184 ANY, 215 ANY, N 13255
[2] = RT codon 41 L, 184 WT, 215 WT, N 54
[3] = RT codon 41 WT, 184 V/I, 215 F/Y, N 673
[4] = RT codon 41 WT, 184 V/I, 215 WT, N 2172
[5] = RT codon 41 WT, 184 WT, 215 WT, N 4826

Excerpt: The whole process can be divided into three phases: molecular biology, transfection and susceptibility testing.
• Viral RNA fragments extracted from patient's blood sample • Complementary DNA (cDNA) of the gag-PR-RT sequence, through to codon 400 formed via reverse transcription • Gag-PT-RT sequence multiplied using two rounds of PCR • Purification of the DNA fragments • Creation of laboratory proviral clone with gag-PR-RT sequence deleted • Insertion of the clone into bacterial plasmids for reproduction of large quantities. Transfection This is the process by which viral genes are transferred to a cell. • 1. The gag-PR-RT sequences from the patient sample and the plasmid fragments are mixed with CD4+, MT4 cells. • 2. Electroporation takes place: the cells are subject to a short (milliseconds), but strong current in a cuvette producing transient openings in the cell membrane, through which both the gag-PR-RT DNA fragment and the plasmid fragment enter. • 3. In a relatively small proportion of the cells, both fragments will meet up and, probably supported by a cellular enzyme, recombine to form a complete HIV-1 genome that can now be converted into infectious virus particles. • 4. The recombinant virus is then grown in this cell culture for approximately 8 days, until the cytopathogenic effect or CPE reaches a sufficient level. • 5. The medium is then centrifuged to separate out the cells and the supernatant contains large quantities of recombinant virus—the virus stock harvest. • 6. The virus is then titrated to achieve a known concentration. Susceptibility Testing
Different concentrations of the antiviral agents are placed in the 384 microwells of a microtiter test plate. Several wells are used for each concentration and the mean results used to increase reliability. • 2. A set dilution of the recombinant virus stock or wild type control virus is added to each microwell. • 3. A set dilution of MT4 cells containing a fluorescent reporter gene system is also added to each microwell. • 4. The plate is incubated for 3 days during which time the recombinant virus will replicate in the MT4 cells unless inhibited by the antiviral drug. Replication triggers the reporter gene, which produces proteins which fluoresce. • 5. The amount of viral replication at each concentration of drug is measured by computerized spectrophotometry, relative to the wild type virus controls. • 6. The susceptibility of the virus to each drug is expressed as a fold change in IC50 relative to wild type virus. • 7.
Plasma samples were obtained from patients and submitted to laboratories for routine assessment of drug susceptibility.

With `Cc1cn([C@H]2C[C@H](N=[N+]=[N-])[C@@H](CO)O2)c(=O)[nH]c1=O` [AZT, zidovudine] as the molecule, how does the “Geometric Mean Phenotype” value [1] read?
The value was 3.9 fold.

What about the “Geometric Mean Phenotype” value [2] of the same molecule?
Its value is 1.7 fold.

What about the “Geometric Mean Phenotype” value [3] of the same molecule?
Its value is 6.2 fold.

What about the “Geometric Mean Phenotype” value [4] of the same molecule?
The value was 1.3 fold.

And the “Geometric Mean Phenotype” value [5]?
Its value is 1.3 fold.

What about the “mean fold resistance, increase” value (genetic clusters with multiple mutations conferring AZT resistance, FIG. 8) of the same molecule?
Its value is about 100 fold.

What about the “effect of including the 184V mutation together with AZT resistance mutations” value (genetic clusters with vs without 184V/I, FIG. 8) of the same molecule?
Its value is “substantial reduction in the predicted magnitude of AZT resistance”.

And the “Average Phenotype (log)” value [1]?
Its value is 0.59.

And the “Average Phenotype (log)” value [2]?
Its value is 0.24.

What about the “Average Phenotype (log)” value [3] of the same molecule?
The value was 0.79.

What about the “Average Phenotype (log)” value [4] of the same molecule?
Its value is 0.10.

And the “Average Phenotype (log)” value [5]?
Its value is 0.12.

And the “mean fold resistance of genetic cluster, in words” value (virus harbouring the 184V mutation, FIG. 8)?
The value was “slightly reduced level of susceptibility”.
